Laboratory results as given in patent US10905657B2, “Solid dispersions of Coenzyme Q10” (Indena S.P.A., priority 2015, dated 2021).

Experiment: Pharmacokinetic study in rats after single oral dose
Settings: male, Sprague-Dawley, rat, in vivo, 50 mg/kg, intragastric gavage, single dose 50 mg Coenzyme Q10/Kg, suspended in 1% carboxymethyl cellulose, plasma
Description: Pharmacokinetic parameters (Tmax, Cmax, absolute bioavailability) were determined in rats after the oral administration of a single dose of Coenzyme Q10 as crystalline powder and as solid dispersion with phospholipids.
Male Sprague-Dawley rats, weighting 300-350 g were used for the pharmacokinetic experiment. Rats were fasted 16 hours before administration with free access to water.
Coenzyme Q10 as crystalline powder and as solid dispersion with phospholipids were suspended in 1% carboxymethyl cellulose water suspension and administered by intragastric gavage as a single dose of 50 mg of Coenzyme Q10/Kg.
Blood samples were collected from tail vein after 0.5-1.0-2.0-4.0-8.0-12.0 and 24 hours after administration.
Plasma was obtained from blood samples by centrifugation at 5.000×g for 15 minutes and kept frozen (−20° C.) until analysis. After protein sedimentation, Coenzyme Q10 was extracted by plasma samples with n-hexane; the extraction step with hexane was repeated for three times. The hexane phases, separated by centrifugation, were collected and the solvent was removed by evaporation under nitrogen. The residue was dissolved in 2-propanol for HPLC/MS analysis at 275 nm, using internal standard method for Coenzyme Q10 quantification.
The following pharmacokinetic parameters were calculated: […]

## COC1=C(OC)C(=O)C(C/C=C(\C)CC/C=C(\C)CC/C=C(\C)CC/C=C(\C)CC/C=C(\C)CC/C=C(\C)CC/C=C(\C)CC/C=C(\C)CC/C=C(\C)CCC=C(C)C)=C(C)C1=O [Crystalline Coenzyme Q10, Coenzyme Q10]
  Cmax: 230 ng/mL
  Tmax: 3.8 h
0-24 hours
  AUC(0-t): 4100 ng·h/mL
